Results from the supplement of paper PMC10307832.

Experiments:
Experiment in all cases: relative viability (nuclei count vs DMSO), 5 days (fraction); higher = more cells survive
RU-SKI 43 + Alpelisib = compound: CC[C@@H](C)CNCC(=O)N1CCC2=C([C@@H]1COC3=CC=CC(=C3)C)C=CS2 [RU-SKI 43] + Cc1nc(NC(=O)N2CCC[C@H]2C(N)=O)sc1-c1ccnc(C(C)(C)C(F)(F)F)c1 [Alpelisib] (partner 2 µM)
Procedure, shortened: (§1)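 Nuclei were stained with Hoechst during a one-step fixation (final 0.05% Triton X-100, 1% formaldehyde, 1 ug/ml Hoechst) carried out 5 days after dosing, then counted on 4× images. The cells, lung cancer lines in 1536-well plates, had been dosed by pin tool the day after seeding with one drug alone or a fixed anchor-drug dose plus five library-drug doses (not always all listed) in √10 steps. Relative viability is the nuclei count in treated wells divided by that in vehicle wells, and each value is the median of duplicate plates.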

Irinotecan + Trametinib = compound: CCc1c2c(nc3ccc(OC(=O)N4CCC(N5CCCCC5)CC4)cc13)-c1cc3c(c(=O)n1C2)COC(=O)[C@]3(O)CC [Irinotecan] + CC(=O)Nc1cccc(-n2c(=O)n(C3CC3)c(=O)c3c(Nc4ccc(I)cc4F)n(C)c(=O)c(C)c32)c1 [Trametinib] (partner 0.02 µM)
Procedure, shortened: as §1

Irinotecan + Lapatinib = compound: CCc1c2c(nc3ccc(OC(=O)N4CCC(N5CCCCC5)CC4)cc13)-c1cc3c(c(=O)n1C2)COC(=O)[C@]3(O)CC [Irinotecan] + CS(=O)(=O)CCNCc1ccc(-c2ccc3ncnc(Nc4ccc(OCc5cccc(F)c5)c(Cl)c4)c3c2)o1 [Lapatinib] (partner 2 µM)
Procedure, shortened: as §1

RU-SKI 43 + Olaparib = compound: CC[C@@H](C)CNCC(=O)N1CCC2=C([C@@H]1COC3=CC=CC(=C3)C)C=CS2 [RU-SKI 43] + O=C(c1cc(Cc2n[nH]c(=O)c3ccccc23)ccc1F)N1CCN(C(=O)C2CC2)CC1 [Olaparib] (partner 8 µM)
Procedure, shortened: as §1

Row | Cell Line | relative viability (RU-SKI 43 + Alpelisib; first compound 0.1 µM) | relative viability (RU-SKI 43 + Alpelisib; first compound 0.3162 µM) | relative viability (RU-SKI 43 + Alpelisib; first compound 1 µM) | relative viability (RU-SKI 43 + Alpelisib; first compound 3.162 µM) | relative viability (RU-SKI 43 + Alpelisib; first compound 10 µM) | relative viability (Irinotecan + Trametinib; first compound 0.6325 µM) | relative viability (Irinotecan + Trametinib; first compound 2 µM) | relative viability (Irinotecan + Trametinib; first compound 6.325 µM) | relative viability (Irinotecan + Trametinib; first compound 20 µM) | relative viability (Irinotecan + Lapatinib; first compound 0.6325 µM) | relative viability (Irinotecan + Lapatinib; first compound 2 µM) | relative viability (Irinotecan + Lapatinib; first compound 6.325 µM) | relative viability (Irinotecan + Lapatinib; first compound 20 µM) | relative viability (RU-SKI 43 + Olaparib; first compound 0.1 µM) | relative viability (RU-SKI 43 + Olaparib; first compound 0.3162 µM) | relative viability (RU-SKI 43 + Olaparib; first compound 1 µM) | relative viability (RU-SKI 43 + Olaparib; first compound 3.162 µM) | relative viability (RU-SKI 43 + Olaparib; first compound 10 µM)
1 | NCI-H322M | 0.85 | 0.852 | 0.833 | 0.891 | 0.794 | 0.508 | 0.616 | 0.481 | 0.304 | 0.585 | 0.654 | 0.328 | 0.363 | 0.703 | 0.817 | 0.76 | 0.797 | 0.703
2 | NCI-H358 | 0.795 | 0.894 | 0.781 | 0.634 | 0.858 | 0.106 | 0.131 | 0.125 | 0.071 | 0.406 | 0.47 | 0.327 | 0.21 | 0.548 | 0.936 | 0.756 | 0.636 | 0.545
3 | NCI-H460 | 0.44 | 0.657 | 0.6 | 0.5 | 0.36 | 0.086 | 0.159 | 0.089 | 0.0313 | 0.287 | 0.475 | 0.0664 | 0.0537 | 0.389 | 0.702 | 0.47 | 0.49 | 0.334
4 | NCI-H520 | 0.968 | 1.01 | 1.09 | 0.918 | 0.793 | 0.52 | 0.397 | 0.264 | 0.172 | 0.604 | 0.664 | 0.28 | 0.2 | 0.35 | 0.292 | 0.372 | 0.344 | 0.335
5 | NCI-H596 | 0.395 | 0.481 | 0.508 | 0.6 | 0.482 | 0.86 | 0.731 | 0.682 | 0.758 | 1.11 | 1.03 | 0.613 | 0.579 | 0.719 | 0.548 | 0.654 | 0.712 | 0.709
6 | NCI-H647 | 1.2 | 1.56 | 1.51 | 1.11 | 1.1 | 0.447 | 0.414 | 0.151 | 0.0916 | 0.865 | 0.44 | 0.199 | 0.138 | 0.584 | 0.821 | 0.512 | 0.695 | 0.628
7 | NCI-H650 | 1.14 | 0.981 | 1.12 |  | 1.07 | 0.733 | 0.308 | 0.173 | 0.206 | 0.757 | 0.693 | 0.275 | 0.31 | 0.404 | 0.517 |  | 0.38 | 0.406
8 | NCI-H661 | 0.647 | 0.668 | 0.846 | 0.464 | 0.404 | 0.464 | 0.524 | 0.535 | 0.209 | 0.478 | 0.357 | 0.314 | 0.296 | 0.763 | 0.976 | 0.718 | 0.786 | 0.665
9 | NCI-H727 | 0.571 | 0.477 | 0.729 | 0.249 | 0.479 | 0.373 | 0.336 | 0.382 | 0.346 | 0.339 | 0.503 | 0.445 | 0.369 |  | 0.515 | 0.694 | 0.67 | 0.624
10 | NCI-H838 | 0.975 | 0.969 | 0.966 | 0.93 | 1.02 | 0.672 | 0.647 | 0.319 | 0.171 | 1.03 | 0.874 | 0.399 | 0.161 | 0.842 | 0.798 | 0.806 | 0.798 | 0.738
11 | NCI-H1355 | 0.826 | 0.877 | 0.924 | 0.956 | 0.921 |  | 0.399 | 0.239 | 0.22 | 0.534 | 0.909 | 0.264 | 0.242 | 0.742 | 0.72 | 0.724 | 0.797 | 0.775
12 | NCI-H1395 | 1.14 | 1.38 | 0.936 | 1.29 | 0.836 |  | 0.812 | 0.549 | 0.375 |  | 0.732 | 0.531 | 0.361 | 0.452 | 0.417 | 0.451 | 0.477 | 0.46
13 | NCI-H1437 | 0.945 | 1.26 | 0.964 | 1.07 | 0.921 | 0.477 | 0.524 | 0.239 | 0.157 | 0.527 | 0.493 | 0.253 | 0.117 | 0.638 | 0.681 | 0.632 | 0.643 | 0.575
14 | NCI-H1651 | 1.08 | 1.25 | 0.953 | 0.926 | 0.936 | 0.831 | 0.657 | 0.419 | 0.134 | 0.293 | 0.536 | 0.179 | 0.101 | 0.16 | 0.188 | 0.195 | 0.213 | 0.185
15 | NCI-H1666 | 1.09 | 1.09 | 0.966 | 0.789 | 0.582 | 0.769 | 0.569 | 0.638 | 0.432 | 0.466 | 0.556 | 0.35 | 0.223 | 0.691 | 0.681 | 0.773 | 0.741 | 0.743
16 | NCI-H1734 | 0.595 | 0.698 | 0.755 | 0.672 | 0.671 |  | 0.261 | 0.188 | 0.188 | 0.883 | 0.588 | 0.186 | 0.191 | 0.559 | 0.661 | 0.656 | 0.589 | 0.591
17 | NCI-H1755 | 0.97 | 1.21 | 1.04 | 1.05 | 0.916 | 0.733 | 0.456 | 0.405 | 0.469 | 0.883 | 0.9 | 0.309 | 0.318 | 0.835 | 0.975 | 0.99 | 0.923 | 0.908
18 | NCI-H1792 | 0.574 | 1.1 | 0.736 | 0.886 | 0.735 | 0.356 | 0.532 | 0.225 | 0.205 | 0.92 | 0.949 | 0.202 | 0.11 | 0.301 | 0.472 | 0.474 | 0.385 | 0.281
